Experiments:
[1] = test system: children and young adults with Dravet syndrome; test: Study 1: Clinical Global Impression of Improvement (CGI-I); type: in vivo, Human; conditions: either 0.2 or 0.8 mg/kg/day dose
Method: CGI-S and CGI-I ratings were made by clinical investigators and parent/caregivers in a series of phase III trials of fenfluramine. CGI changes were measured in two randomized, controlled trials with results reported herein. Study 1 was conducted as described in Example 1 and CGI ratings were made according to a set schedule of visits made to the clinic. Tables of results and bar graphs of the statistical analyses of CGI ratings for Study 1 at visit twelve (day 113) are provided in FIGS. 1-4. […] Similar results were obtained with investigator CGI-I rating.
In Study 1, subjects were assessed using Clinical Global Impression (CGI), allowing the parent/caregiver and principal investigator to assess improvement, as well as the Quality of Life in Childhood Epilepsy (QOLCE) Scale and the Pediatric Quality of Life Inventory (PedsQL) to measure changes in the quality of life of the subject. Comparisons between treatment groups were made using Wilcoxon rank sum tests.
(§1) The CGI scale measures the change in the subject's clinical status from a specific point in time, i.e., the Baseline Period (and also referred to as the CGI-S, an initial ranking of severity). The CGI rating scale permits a global evaluation of the subject's improvement over time.

[2] = test system: subjects with Dravet syndrome; test: Study 1503: open-label long-term extension, CGI-I at baseline and final visit; type: in vivo, Human; conditions: OLE Final Visit
Method: Study 1503 was an open-label, long-term safety study of ZX008 in subjects with Dravet syndrome who successfully completed 14 weeks of treatment in 1501, 1502, or 1504 Cohorts 1 and 2. […] CGI-S(baseline scores) were determined at entry into 1503 (i.e., after completing a blinded 16 week trial) and then again at each patient's final visit. FIGS. 7 and 8, and Tables 3 and 4 present numbers of patients having each of the 7 ratings and statistical calculations of improvements.
as §1

[3] = test system: Dravet syndrome patients; conditions: cited from earlier work
[4] = test system: Dravet syndrome patients; conditions: Dravet syndrome (Devinsky, NEJM 2017); cited from earlier work
[5] = molecular target: serotonin 5-HT2B receptor (Homo sapiens, UniProt P41595); conditions: cited from earlier work
Sequence of serotonin 5-HT2B receptor (P41595 whole entry): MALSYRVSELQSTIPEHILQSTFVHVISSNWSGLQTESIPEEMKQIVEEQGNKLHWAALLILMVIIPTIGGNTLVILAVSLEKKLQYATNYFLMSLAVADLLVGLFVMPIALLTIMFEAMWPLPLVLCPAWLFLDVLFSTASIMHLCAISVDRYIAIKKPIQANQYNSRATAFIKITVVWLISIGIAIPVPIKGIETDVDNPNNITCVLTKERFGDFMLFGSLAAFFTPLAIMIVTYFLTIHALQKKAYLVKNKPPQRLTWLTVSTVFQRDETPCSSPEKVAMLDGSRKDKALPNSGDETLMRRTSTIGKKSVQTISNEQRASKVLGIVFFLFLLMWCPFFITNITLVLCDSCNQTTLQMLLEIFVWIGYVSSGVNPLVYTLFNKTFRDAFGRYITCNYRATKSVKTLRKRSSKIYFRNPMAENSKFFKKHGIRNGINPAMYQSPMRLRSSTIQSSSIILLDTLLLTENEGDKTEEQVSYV

[6] = molecular target: T1, serotonin 5-HT2C receptor (Homo sapiens, UniProt P28335); conditions: cited from earlier work
T1 sequence (P28335 33-458): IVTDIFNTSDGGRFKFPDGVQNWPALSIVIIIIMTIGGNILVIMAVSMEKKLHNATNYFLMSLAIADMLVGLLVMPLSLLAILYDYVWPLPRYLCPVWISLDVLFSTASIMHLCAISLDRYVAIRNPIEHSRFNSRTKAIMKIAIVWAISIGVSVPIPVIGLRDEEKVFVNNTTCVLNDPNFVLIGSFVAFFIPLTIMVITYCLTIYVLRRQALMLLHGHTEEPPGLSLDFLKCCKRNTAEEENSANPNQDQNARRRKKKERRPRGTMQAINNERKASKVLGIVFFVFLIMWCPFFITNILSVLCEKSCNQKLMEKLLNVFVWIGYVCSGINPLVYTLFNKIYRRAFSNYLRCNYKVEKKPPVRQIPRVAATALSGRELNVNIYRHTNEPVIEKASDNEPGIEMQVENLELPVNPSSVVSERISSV

[7] = molecular target: serotonin 5-HT2A receptor (Homo sapiens, UniProt P28223); conditions: cited from earlier work
Sequence of serotonin 5-HT2A receptor (P28223 whole entry): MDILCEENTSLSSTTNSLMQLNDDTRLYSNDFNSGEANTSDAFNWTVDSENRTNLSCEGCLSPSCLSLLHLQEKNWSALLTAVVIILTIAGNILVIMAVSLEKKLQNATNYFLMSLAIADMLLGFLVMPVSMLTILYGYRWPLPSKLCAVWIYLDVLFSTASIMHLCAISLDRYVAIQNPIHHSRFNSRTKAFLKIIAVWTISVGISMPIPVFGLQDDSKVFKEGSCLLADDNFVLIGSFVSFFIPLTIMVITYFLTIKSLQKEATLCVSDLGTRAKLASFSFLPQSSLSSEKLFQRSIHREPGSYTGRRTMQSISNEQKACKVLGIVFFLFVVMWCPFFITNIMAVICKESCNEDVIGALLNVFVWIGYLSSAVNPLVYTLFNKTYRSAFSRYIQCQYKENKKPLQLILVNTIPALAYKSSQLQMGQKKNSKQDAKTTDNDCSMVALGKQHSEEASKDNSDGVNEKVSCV

CCNC(C)Cc1cccc(C(F)(F)F)c1 (racemic) [fenfluramine, (RS)—N-ethyl-1-[3-(trifluoromethyl)phenyl]propan-2-amine, reference compound]
Parents/caregivers rating their children 'very much improved' or 'much improved' (CGI-I) vs placebo group [1]: Significantly more
CGI-I investigator, Improved (1, 2, 3), % [2]: 85.4%
CGI-I investigator, Much/very much improved (1, 2), % [2]: 64.2%
CGI-I parent/caregiver, Improved (1, 2, 3), % [2]: 82.3%
CGI-I parent/caregiver, Much/very much improved (1, 2), % [2]: 62.5%

CC(C)(C)C(O)/C=C/c1ccc2c(c1)OCO2 (stereo not shown) [Stiripentol, stiripentol]
Reduction of tonic-clonic seizure rate [3]: 70%

C=C(C)[C@@H]1CCC(C)=C[C@H]1c1c(O)cc(CCCCC)cc1O [cannabidiol]
Cognitive function, active treatment groups vs placebo [4]: did not achieve significant difference from placebo

CC(N)Cc1cccc(C(F)(F)F)c1 (stereo not shown) [norfenfluramine]
Binds to and activates serotonin 5-HT2B receptor, affinity [5]: high affinity
Binds to and activates serotonin 5-HT2C receptor, affinity [6]: high affinity
Binds to and activates serotonin 5-HT2A receptor, affinity [7]: moderate affinity

Reference: patent US20200306210A1 (ZOGENIX INTERNATIONAL LIMITED, priority 2017, published 2020)
